Assay results as given in PubChem BioAssay AID2060346 (Molecular Pharmacology Branch, DTP, NCI, 2025).
Several values for one entry are separate records, joined by “and”; a condition that tells them apart may be missing. Identical values can stand only once.

Test system: CN0375-F725-PDC multi-cell spheroids, viability
Assay: Anticancer human tumor CN0375-F725-PDC patient-derived colon carcinoma cell line growth inhibition [TAK]
Conditions: for viability, T/C: stronger effect = lower value
Text: Combinatorial screen of targeted agents with TAK-243 and ipatasertib in multi-cell type tumor spheroids
A high-throughput screen of multi-cell type tumor spheroids was designed to identify active combinations of targeted small molecules and TAK-243 or ipatasertib. Complex spheroids include a stromal component modeled by human endothelial cells (HUVEC) and fibroblasts modeled by human mesenchymal stem cells (MSCs). The concentration ranges selected for each drug and investigational agent were based upon clinically achievable concentrations if the clinical Cmax of the agent was known.
Compounds. The drugs and investigational agents: TAK-243 (785004), ipatasertib (767898), everolimus (733504), selumetinib (741078), bortezomib (756655), trametinib (758246), ixazomib (758254), vemurafenib (761431), dabrafenib (764134), sapanisertib (764658), alpelisib (765974), and copanlisib (816437), were obtained from the National Cancer Institute (NCI) Developmental Therapeutics Program Chemical Repository. The FDA-approved anticancer drug set is available from the NCI Developmental Therapeutics Program. […] The stock solutions were prepared in dimethyl sulfoxide (DMSO, Sigma-Aldrich, St. Louis, MO, cat. D2650) at 800-fold the tested concentration and stored at -70 degrees C prior to their use. All drugs and investigational agents were tested over a range starting from a high concentration at or near the clinical Cmax and decreasing in half-log increments. If the clinical Cmax for an agent had not been determined, the highest concentration tested was 10 microM.
NCI60 Cell Culture. NCI60 cell lines were obtained from the NCI Developmental Therapeutics Program Tumor Repository. For each lot of cells, the Repository performed Applied Biosystems AmpFLSTR Identifiler testing with PCR amplification to confirm consistency with the published Identifier STR profile for each cell line. Cells were kept in continuous culture for no more than 20 passages. The optimal seeding densities for each of the cell lines at each time point assessed were determined prior to performing the concentration response studies. Briefly, the NCI60 human tumor lines were grown as monolayers in RPMI 1640 medium supplemented with 10% FBS and 2 mmol/L L-glutamine.
An additional 2 lines were from the NCI60 cell line panel including melanomas, MALME-3M and SK-MEL-2. Pooled donor human umbilical vein endothelial cells (HUVEC, Lonza, cat. CC-2519) and human mesenchymal stem cells (hMSC, Lonza, cat. PT-2501) were purchased from Lonza (Walkersville, MD).
PDMR cell lines were grown in complete medium (DC medium): Dulbecco's modified Eagle's medium (DMEM)/F12 supplemented with 5% fetal bovine serum (FBS), 2 mM L-glutamine, 100 U/mL penicillin and 100 µg/ml streptomycin, 0.4 µg/ml hydrocortisone, 10 ng/ml epidermal growth factor (EGF) recombinant human protein, 24 µg/mL adenine, and 0.1 mg/mL primocin. During culture from frozen stock vials, PDMR cells were cultured in the same medium containing 10 µM Y-27632 (see Table 3). The PDCs were cultured in complete DMEM/F12 media without 10 microM Y-27632 dihydrochloride for at least two passages prior to the screen. The pooled donor HUVEC and hMSC were cultured in endothelial cell growth medium 2 (PromoCell, Heidelberg, Germany, cat. C-22011) and mesenchymal stem cell growth medium 2 (PromoCell, cat. C-28009), respectively. For all experiments, HUVEC and hMSC were used at passages </=5.
For the pre-screen, cell seeding densities were determined from a titration spanning the range from 5,000 to 313 cells per well. The mct-spheroids including 60% malignant cells, 25% HUVEC and 15% MSC dispensed as a mixture into U-bottom Ultra-Low Attachment 384-well plates (Corning, NY)
High-throughput Drug Combination Screening.
Prior to their inoculation into 384-well plates, malignant cells, HUVEC, and hMSC were removed from T flasks using TrypLE express (Thermo Fisher Scientific, cat. 12605036) and harvested by centrifugation for 5 min at 233 x g. […]

[1] = curve of first compound, second compound 0.3 µM
[2] = curve of first compound, second compound 0.949 µM
[3] = curve of first compound, second compound 3 µM
[4] = curve of first compound, second compound 9.49 µM
[5] = curve of first compound, second compound 30 µM
[6] = second compound 0.3 µM, first compound 0.0316 µM
[7] = second compound 0.3 µM, first compound 0.1 µM
[8] = second compound 0.3 µM, first compound 0.316 µM
[9] = second compound 0.3 µM, first compound 1 µM
[10] = second compound 0.3 µM, first compound 3.16 µM
[11] = second compound 0.3 µM, first compound 10 µM
[12] = second compound 0.949 µM, first compound 0.0316 µM
[13] = second compound 0.949 µM, first compound 0.1 µM
[14] = second compound 0.949 µM, first compound 0.316 µM
[15] = second compound 0.949 µM, first compound 1 µM
[16] = second compound 0.949 µM, first compound 3.16 µM
[17] = second compound 0.949 µM, first compound 10 µM
[18] = second compound 3 µM, first compound 0.0316 µM
[19] = second compound 3 µM, first compound 0.1 µM
[20] = second compound 3 µM, first compound 0.316 µM
[21] = second compound 3 µM, first compound 1 µM
[22] = second compound 3 µM, first compound 3.16 µM
[23] = second compound 3 µM, first compound 10 µM
[24] = second compound 9.49 µM, first compound 0.0316 µM
[25] = second compound 9.49 µM, first compound 0.1 µM
[26] = second compound 9.49 µM, first compound 0.316 µM
[27] = second compound 9.49 µM, first compound 1 µM
[28] = second compound 9.49 µM, first compound 3.16 µM
[29] = second compound 9.49 µM, first compound 10 µM
[30] = second compound 30 µM, first compound 0.0316 µM
[31] = second compound 30 µM, first compound 0.1 µM
[32] = second compound 30 µM, first compound 0.316 µM
[33] = second compound 30 µM, first compound 1 µM
[34] = second compound 30 µM, first compound 3.16 µM
[35] = second compound 30 µM, first compound 10 µM
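Note: spheroids exposed to drugs for seven days.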
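Throughout, for viability, T/C: 100% = DMSO vehicle control wells.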

Cc1nc(NC(=O)N2CCCC2C(N)=O)sc1-c1ccnc(C(C)(C)C(F)(F)F)c1 (configuration not stated)
viability, T/C (compound 0.0316 µM): 102% and 105%
viability, T/C (compound 0.1 µM): 93.8% and 98.5%
viability, T/C (compound 0.316 µM): 92.2% and 85.6%
viability, T/C (compound 1 µM): 85.7% and 77.4%
viability, T/C (compound 3.16 µM): 68.3% and 65.6%
viability, T/C (compound 10 µM): 57.7% and 47.6%
IC50 (curve of compound): > 10 µM and 9.17 µM

CC(C)(C)c1nc(-c2cccc(NS(=O)(=O)c3c(F)cccc3F)c2F)c(-c2ccnc(N)n2)s1 + CC(C)NCC(C(=O)N1CCN(c2ncnc3c2C(C)CC3O)CC1)c1ccc(Cl)cc1
IC50 [1]: > 10 µM
IC50 [2]: > 10 µM
IC50 [3]: > 10 µM
IC50 [4]: > 10 µM
IC50 [5]: > 10 µM
viability, T/C [6]: 121%
viability, T/C [7]: 128%
viability, T/C [8]: 124%
viability, T/C [9]: 118%
viability, T/C [10]: 105%
viability, T/C [11]: 108%
viability, T/C [12]: 123%
viability, T/C [13]: 125%
viability, T/C [14]: 120%
viability, T/C [15]: 111%
viability, T/C [16]: 95%
viability, T/C [17]: 107%
viability, T/C [18]: 108%
viability, T/C [19]: 119%
viability, T/C [20]: 120%
viability, T/C [21]: 103%
viability, T/C [22]: 94.9%
viability, T/C [23]: 92.1%
viability, T/C [24]: 98%
viability, T/C [25]: 108%
viability, T/C [26]: 105%
viability, T/C [27]: 97.9%
viability, T/C [28]: 85.4%
viability, T/C [29]: 86.2%
viability, T/C [30]: 94.3%
viability, T/C [31]: 102%
viability, T/C [32]: 89.6%
viability, T/C [33]: 79.3%
viability, T/C [34]: 77.7%
viability, T/C [35]: 75%

Cn1cnc2c(F)c(Nc3ccc(Br)cc3Cl)c(C(=O)NOCCO)cc21 + CC(C)NCC(C(=O)N1CCN(c2ncnc3c2C(C)CC3O)CC1)c1ccc(Cl)cc1
IC50 [1]: 0.26 µM
IC50 [2]: 0.222 µM
IC50 [3]: 0.161 µM
IC50 [4]: 0.178 µM
IC50 [5]: 0.0712 µM
viability, T/C (second compound 0.3 µM, first compound 0.00949 µM): 91.4%
viability, T/C (second compound 0.3 µM, first compound 0.03 µM): 75.3%
viability, T/C (second compound 0.3 µM, first compound 0.0949 µM): 58.8%
viability, T/C (second compound 0.3 µM, first compound 0.3 µM): 50%
viability, T/C (second compound 0.3 µM, first compound 0.949 µM): 38.6%
viability, T/C (second compound 0.3 µM, first compound 3 µM): 30.6%
viability, T/C (second compound 0.949 µM, first compound 0.00949 µM): 83.5%
viability, T/C (second compound 0.949 µM, first compound 0.03 µM): 78.6%
viability, T/C (second compound 0.949 µM, first compound 0.0949 µM): 57.6%
viability, T/C (second compound 0.949 µM, first compound 0.3 µM): 48.3%
viability, T/C (second compound 0.949 µM, first compound 0.949 µM): 36%
viability, T/C (second compound 0.949 µM, first compound 3 µM): 31.1%
viability, T/C (second compound 3 µM, first compound 0.00949 µM): 79.6%
viability, T/C (second compound 3 µM, first compound 0.03 µM): 72%
viability, T/C (second compound 3 µM, first compound 0.0949 µM): 56.9%
viability, T/C (second compound 3 µM, first compound 0.3 µM): 41.4%
viability, T/C (second compound 3 µM, first compound 0.949 µM): 34.2%
viability, T/C (second compound 3 µM, first compound 3 µM): 29.3%
viability, T/C (second compound 9.49 µM, first compound 0.00949 µM): 77.8%
viability, T/C (second compound 9.49 µM, first compound 0.03 µM): 69.4%
viability, T/C (second compound 9.49 µM, first compound 0.0949 µM): 58.2%
viability, T/C (second compound 9.49 µM, first compound 0.3 µM): 42.7%
viability, T/C (second compound 9.49 µM, first compound 0.949 µM): 32.7%
viability, T/C (second compound 9.49 µM, first compound 3 µM): 23.2%
viability, T/C (second compound 30 µM, first compound 0.00949 µM): 66%
viability, T/C (second compound 30 µM, first compound 0.03 µM): 64.2%
viability, T/C (second compound 30 µM, first compound 0.0949 µM): 43.5%
viability, T/C (second compound 30 µM, first compound 0.3 µM): 31.6%
viability, T/C (second compound 30 µM, first compound 0.949 µM): 22.1%
viability, T/C (second compound 30 µM, first compound 3 µM): 16.1%

Cc1nc(NC(=O)N2CCCC2C(N)=O)sc1-c1ccnc(C(C)(C)C(F)(F)F)c1 (configuration not stated) + CC(C)NCC(C(=O)N1CCN(c2ncnc3c2C(C)CC3O)CC1)c1ccc(Cl)cc1
IC50 [1]: > 10 µM
IC50 [2]: > 10 µM
IC50 [3]: > 10 µM
IC50 [4]: 9.46 µM
IC50 [5]: 4.99 µM
viability, T/C [6]: 102%
viability, T/C [7]: 95.6%
viability, T/C [8]: 89.5%
viability, T/C [9]: 82.1%
viability, T/C [10]: 74.4%
viability, T/C [11]: 52.5%
viability, T/C [12]: 101%
viability, T/C [13]: 97.7%
viability, T/C [14]: 94.4%
viability, T/C [15]: 88.7%
viability, T/C [16]: 74.3%
viability, T/C [17]: 57.9%
viability, T/C [18]: 98.6%
viability, T/C [19]: 98.4%
viability, T/C [20]: 86.7%
viability, T/C [21]: 81.8%
viability, T/C [22]: 71.7%
viability, T/C [23]: 51.6%
viability, T/C [24]: 89.4%
viability, T/C [25]: 94.5%
viability, T/C [26]: 88.1%
viability, T/C [27]: 79.5%
viability, T/C [28]: 66.7%
viability, T/C [29]: 49%
viability, T/C [30]: 80%
viability, T/C [31]: 82%
viability, T/C [32]: 71.7%
viability, T/C [33]: 67.4%
viability, T/C [34]: 59.9%
viability, T/C [35]: 37.9%
